Assay results published in PubChem BioAssay AID1963982 (Molecular Pharmacology Branch, DTP, NCI, 2024).
One block for each compound: values may come before it.

System: 313798-341-R-J2-PDC spheroids, viability
Test: Anticancer human tumor 313798-341-R-J2-PDC patient-derived cervical squamous cell carcinoma cell line growth inhibition [PI3K]
Conditions: spheroids with HUVEC and MSC; for viability, T/C: stronger effect = lower value
Summary of the method: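 Complex 3D spheroids (cancer cells + endothelial HUVEC + mesenchymal stem cells); drug pairs of targeted agent x inavolisib/alpelisib/duvelisib/copanlisib; half-log series from ~Cmax, max 10 microM if Cmax unknown; endpoint viability.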

[1] = curve of first compound, second compound 0.0316 µM
[2] = curve of first compound, second compound 0.1 µM
[3] = curve of first compound, second compound 0.316 µM
[4] = curve of first compound, second compound 1 µM
[5] = curve of first compound, second compound 3.16 µM
[6] = curve of first compound, second compound 10 µM
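Also: spheroids exposed to compounds for seven days.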
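For viability, T/C in this document: 100% = DMSO vehicle control viability.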

IC50 (curve of compound): > 10000 nM
SMILES: C#Cc1c(F)ccc2cc(O)cc(-c3ncc4c(N5CC6CCC(C5)N6)nc(OCC56CCCN5CC(F)C6)nc4c3F)c12 (stereo not drawn)
viability, T/C (compound 0.0316 µM): 102% [middle of 4 runs]
viability, T/C (compound 0.1 µM): 105% [middle of 4 runs]
viability, T/C (compound 0.316 µM): 108% [middle of 4 runs]
viability, T/C (compound 1 µM): 98.5% [middle of 4 runs]
viability, T/C (compound 3.16 µM): 106% [middle of 4 runs]
viability, T/C (compound 10 µM): 95.2% [middle of 4 runs]

IC50 [1]: > 3000 nM
IC50 [2]: > 3000 nM
IC50 [3]: > 3000 nM
IC50 [4]: > 3000 nM
IC50 [5]: > 3000 nM
IC50 [6]: > 3000 nM
SMILES: Cn1cnc2c(F)c(Nc3ccc(Br)cc3Cl)c(C(=O)NOCCO)cc21 + CC(Nc1ncnc2nc[nH]c12)c1cc2cccc(Cl)c2c(=O)n1-c1ccccc1
viability, T/C (second compound 0.0316 µM, first compound 0.00949 µM): 97.3%
viability, T/C (second compound 0.0316 µM, first compound 0.03 µM): 99%
viability, T/C (second compound 0.0316 µM, first compound 0.0949 µM): 92.1%
viability, T/C (second compound 0.0316 µM, first compound 0.3 µM): 91.4%
viability, T/C (second compound 0.0316 µM, first compound 0.949 µM): 89.2%
viability, T/C (second compound 0.0316 µM, first compound 3 µM): 77.9%
viability, T/C (second compound 0.1 µM, first compound 0.00949 µM): 85.7%
viability, T/C (second compound 0.1 µM, first compound 0.03 µM): 95.7%
viability, T/C (second compound 0.1 µM, first compound 0.0949 µM): 89%
viability, T/C (second compound 0.1 µM, first compound 0.3 µM): 95.2%
viability, T/C (second compound 0.1 µM, first compound 0.949 µM): 80%
viability, T/C (second compound 0.1 µM, first compound 3 µM): 81.3%
viability, T/C (second compound 0.316 µM, first compound 0.00949 µM): 87.2%
viability, T/C (second compound 0.316 µM, first compound 0.03 µM): 93.7%
viability, T/C (second compound 0.316 µM, first compound 0.0949 µM): 87.6%
viability, T/C (second compound 0.316 µM, first compound 0.3 µM): 92.7%
viability, T/C (second compound 0.316 µM, first compound 0.949 µM): 87.1%
viability, T/C (second compound 0.316 µM, first compound 3 µM): 74.6%
viability, T/C (second compound 1 µM, first compound 0.00949 µM): 96.6%
viability, T/C (second compound 1 µM, first compound 0.03 µM): 98.1%
viability, T/C (second compound 1 µM, first compound 0.0949 µM): 90.3%
viability, T/C (second compound 1 µM, first compound 0.3 µM): 86.1%
viability, T/C (second compound 1 µM, first compound 0.949 µM): 90.1%
viability, T/C (second compound 1 µM, first compound 3 µM): 71.5%
viability, T/C (second compound 3.16 µM, first compound 0.00949 µM): 92.4%
viability, T/C (second compound 3.16 µM, first compound 0.03 µM): 87.7%
viability, T/C (second compound 3.16 µM, first compound 0.0949 µM): 94.3%
viability, T/C (second compound 3.16 µM, first compound 0.3 µM): 89%
viability, T/C (second compound 3.16 µM, first compound 0.949 µM): 79.7%
viability, T/C (second compound 3.16 µM, first compound 3 µM): 76.8%
viability, T/C (second compound 10 µM, first compound 0.00949 µM): 75.2%
viability, T/C (second compound 10 µM, first compound 0.03 µM): 81.3%
viability, T/C (second compound 10 µM, first compound 0.0949 µM): 80.8%
viability, T/C (second compound 10 µM, first compound 0.3 µM): 73.8%
viability, T/C (second compound 10 µM, first compound 0.949 µM): 80.5%
viability, T/C (second compound 10 µM, first compound 3 µM): 53.1%

IC50 (curve of compound): 2 µM [middle of 4 runs]
SMILES: CC(C)NCC(C(=O)N1CCN(c2ncnc3c2C(C)CC3O)CC1)c1ccc(Cl)cc1 (stereo not drawn)
viability, T/C (compound 0.0316 µM): 97.6% [middle of 4 runs]
viability, T/C (compound 0.1 µM): 96.4% [middle of 4 runs]
viability, T/C (compound 0.316 µM): 92.8% [middle of 4 runs]
viability, T/C (compound 1 µM): 65.8% [middle of 4 runs]
viability, T/C (compound 3.16 µM): 41.6% [middle of 4 runs]
viability, T/C (compound 10 µM): 31.5% [middle of 4 runs]

IC50 [1]: 927 nM
IC50 [2]: 831 nM
IC50 [3]: 868 nM
IC50 [4]: 572 nM
IC50 [5]: 238 nM
IC50 [6]: < 31.6 nM
SMILES: Cn1ncc(Cl)c1-c1cc(C(=O)NC(CN)Cc2cccc(F)c2)sc1Cl (stereo not drawn) + Cc1nc(NC(=O)N2CCCC2C(N)=O)sc1-c1ccnc(C(C)(C)C(F)(F)F)c1
viability, T/C (second compound 0.0316 µM, first compound 0.0316 µM): 109%
viability, T/C (second compound 0.0316 µM, first compound 0.1 µM): 93.2%
viability, T/C (second compound 0.0316 µM, first compound 0.316 µM): 70.3%
viability, T/C (second compound 0.0316 µM, first compound 1 µM): 49.7%
viability, T/C (second compound 0.0316 µM, first compound 3.16 µM): 34.5%
viability, T/C (second compound 0.0316 µM, first compound 10 µM): 33.3%
viability, T/C (second compound 0.1 µM, first compound 0.0316 µM): 108%
viability, T/C (second compound 0.1 µM, first compound 0.1 µM): 89%
viability, T/C (second compound 0.1 µM, first compound 0.316 µM): 72.1%
viability, T/C (second compound 0.1 µM, first compound 1 µM): 44.5%
viability, T/C (second compound 0.1 µM, first compound 3.16 µM): 33.6%
viability, T/C (second compound 0.1 µM, first compound 10 µM): 34.8%
viability, T/C (second compound 0.316 µM, first compound 0.0316 µM): 102%
viability, T/C (second compound 0.316 µM, first compound 0.1 µM): 99.7%
viability, T/C (second compound 0.316 µM, first compound 0.316 µM): 72.2%
viability, T/C (second compound 0.316 µM, first compound 1 µM): 48.5%
viability, T/C (second compound 0.316 µM, first compound 3.16 µM): 34.5%
viability, T/C (second compound 0.316 µM, first compound 10 µM): 33.1%
viability, T/C (second compound 1 µM, first compound 0.0316 µM): 76.5%
viability, T/C (second compound 1 µM, first compound 0.1 µM): 73.9%
viability, T/C (second compound 1 µM, first compound 0.316 µM): 56.5%
viability, T/C (second compound 1 µM, first compound 1 µM): 43.9%
viability, T/C (second compound 1 µM, first compound 3.16 µM): 34.3%
viability, T/C (second compound 1 µM, first compound 10 µM): 33.7%
viability, T/C (second compound 3.16 µM, first compound 0.0316 µM): 59.5%
viability, T/C (second compound 3.16 µM, first compound 0.1 µM): 57.5%
viability, T/C (second compound 3.16 µM, first compound 0.316 µM): 46%
viability, T/C (second compound 3.16 µM, first compound 1 µM): 40.7%
viability, T/C (second compound 3.16 µM, first compound 3.16 µM): 30.4%
viability, T/C (second compound 3.16 µM, first compound 10 µM): 28.4%
viability, T/C (second compound 10 µM, first compound 0.0316 µM): 38.2%
viability, T/C (second compound 10 µM, first compound 0.1 µM): 32.6%
viability, T/C (second compound 10 µM, first compound 0.316 µM): 31.9%
viability, T/C (second compound 10 µM, first compound 1 µM): 26.4%
viability, T/C (second compound 10 µM, first compound 3.16 µM): 27.7%
viability, T/C (second compound 10 µM, first compound 10 µM): 17.4%
